The nature of series [1]: Attempt to dissolve pure CBD in beverages. The format is physicochemical. To be noted: 2.7 mg in 25 ml of beverage. Here is the method: Samples of still water (Mei Eden bottled water), carbonated water (made by Tempo Soda), alcoholic lager beer (Carlsberg) and orange juice (made by Primor) were prepared using each of CBD-Whey and Whey only. 25 ml of beverage was prepared for each sample, and 45 mg of CBD-Whey (which contains 2.7 mg of CBD). […] The study continued with comparison of CBD-Whey and Whey only. Volunteers, who were Cannabis naïve, were given 8 samples, in a randomized order and were asked to fill a questionnaire relating to appearance, taste and smell of samples. Evaluations were performed by 6 volunteers for each of the 8 samples (four beverages with CBD-Whey and four beverages with Whey only.)

[2] abbreviates: THC in plasma, intravenously, 5 mg/kg single dose.
Setting [3] is: male, Sprague-Dawley, rat, plasma, iv, 5 mg/kg.

Each structure is given as a SMILES string. Read-outs that look alike come from different tables or passages of the source.

Turning to `C=C(C)[C@@H]1CCC(C)=C[C@H]1c1c(O)cc(CCCCC)cc1O` [CBD, cannabidiol], in series [1], the dissolution in beverages entry is listed as “crystalline CBD was visible”.

Regarding `CCCCCc1cc(O)c2c(c1)OC(C)(C)[C@@H]1CCC(C)=C[C@@H]21` [IV, tetrahydrocannabinol], under setting [2], the “AUC0−∞/D” value was 121 kg·ng·h/mL/mg; the apparent clearance CL/F (commonly clearance divided by bioavailability, as obtained after extravascular dosing) was found to be 137.2 mL/min/kg; the Cmax/D was determined as 202 kg·ng/mL/mg. The compound further came in with a F (THC, intravenously, 5 mg/kg single dose (reference)) of 100%. For the same compound, under setting [3], the total exposure AUC(0-inf) (usually total exposure, with the tail of the curve extrapolated) was found to be 607 ng·h/mL; the AUC(0-t) (as a rule, exposure summed from dosing to a finite time, without extrapolation to infinity) was found to be 575 ng·h/mL; the concentration peaked (Cmax) at 1010 ng/mL; the time to peak (Tmax) (in general, the time at which the peak concentration occurs) amounted to 5 min. The half-life – broadly, the time in which the quantity being followed falls by half – (male, Sprague-Dawley, rat, plasma, iv, 5 mg/kg, t1/2, THC in plasma, intravenously, 5 mg/kg single dose) was 10.8 h. This compound also had a half-life (male, Sprague-Dawley, rat, plasma, iv, 5 mg/kg, terminal t1/2, after IV administration, analysis that included the 24 hr time point) of about 10 h.
